Where “and” joins values, the source holds several entries; their conditions need not be identical. Equal values may be shown once. Read-outs that look alike come from different tables or passages of the source.
Key:
CgBdf1 BD1 [1] = target: CgBdf1 BD1 (Candida glabrata, UniProt Q6FWV7); test: HTRF assay, inhibition of H4ac4 peptide binding; set-up: species or system C. glabrata; settings: for IC50 / pIC50 CgBD1: single experiments Exp1-3; for IC50: read-out: pIC50 CgBD1 (converted)
CgBdf1 BD2 [2] = target: CgBdf1 BD2 (Candida glabrata, UniProt Q6FWV7); test: biochemical; type: binding, C. glabrata; settings: for IC50 / pIC50 CgBD2: single experiments Exp1-3; for IC50: read-out: pIC50 CgBD2 (converted)
[3] = system: C. glabrata strains expressing WT and mutant Bdf1; test: Growth inhibition in liquid media, C. glabrata lab strains; settings: for pEC50 growth inhibition: Fig 2C; for EC50: Nakaseomyces glabratus; for OD at 600 nm: Figure S4B, Exp 1-3
Method: Growth on Liquid Media with C. glabrata Lab Strains: Cells were grown at 30 °C in SC+M+C‐U medium (SC medium with 5 mM methionine, 0.25 mM cysteine, without uracil) to an OD600 of 0.5–0.8. […] Plates were incubated at 30 °C and OD600 was measured using a Multiskan FC Microplate Photometer (Thermo Fisher).

CgBdf1 BD1 [4] = test: Histone peptide array assay; settings: peptide array signal; for Raw data, WT / Normalized (0 to 100%), WT: CgBdf1 BD1 WT; for Normalized (0 to 100%), WT / Normalized (0 to 100%), YF mutant: mean of the two raw values; for Raw data, YF mutant / Normalized (0 to 100%), YF mutant: CgBdf1 BD1 YF mutant
Method: (§1) The array was prepared as described in the manufacturer's instructions. […] The array was then washed three times with binding buffer. Anti‐GST antibody (GE Healthcare) was used for the detection of GST‐tagged bromodomains.

CgBdf1 BD2 [5] = test: Histone peptide array assay; settings: peptide array signal; for Raw data, WT / Normalized (0 to 100%), WT: CgBdf1 BD2 WT; for Normalized (0 to 100%), WT / Normalized (0 to 100%), YF mutant: mean of the two raw values; for Raw data, YF mutant / Normalized (0 to 100%), YF mutant: CgBdf1 BD2 YF mutant
Method: as §1

[6] = Fig 2C original data, analogs of 24
[7] = strain BD2 Y-F, single experiments Exp1-3
[8] = read-out: pEC50 (WT BDF1), Fig 2D (converted), WT C. glabrata, single experiments Exp1-3
[9] = read-out: pEC50 growth inhibition, Fig 2C (converted), strain BD1 Y-F, single experiments Exp1-3
[10] = read-out: pEC50 growth inhibition, Fig 2C (converted), strain BD2 Y-F, single experiments Exp1-3
[11] = Fig 1D/2A original data, listed as IBET-151
[12] = Fig 1D/2A original data, listed as i-BET151

Chain of CgBdf1 BD2 (Candida glabrata, UniProt Q6FWV7) (Q6FWV7 entry or part of it): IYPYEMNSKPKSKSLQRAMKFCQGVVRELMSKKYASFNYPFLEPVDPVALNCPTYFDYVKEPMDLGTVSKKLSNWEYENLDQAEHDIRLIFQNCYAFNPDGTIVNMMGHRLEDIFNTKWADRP
Chain of CgBdf1 BD1 (Candida glabrata, UniProt Q6FWV7) (Q6FWV7 entry or part of it): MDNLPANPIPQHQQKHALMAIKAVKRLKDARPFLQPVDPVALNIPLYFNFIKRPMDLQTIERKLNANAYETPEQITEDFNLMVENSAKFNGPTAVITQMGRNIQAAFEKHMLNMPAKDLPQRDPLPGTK

## Cc1cccc(-c2nnc(C)c(NCc3ccco3)n2)c1 [Compound 24b]
CgBdf1 BD1 [1]; [6]
  IC50: 12.6 µM and 14.6 µM and 22.2 µM
CgBdf1 BD2 [2]; [6]
  IC50: 29.5 µM and 74.6 µM and > 100 µM
[3]; [7]
  pEC50 growth inhibition: 3.930 and 3.985
[3]; [8]
  EC50: > 251 µM
[3]; [9]
  EC50: > 251 µM
[3]; [10]
  EC50: 74.8 µM

## Cc1ccc(C(=N)NN)cc1 [Compound 66]
CgBdf1 BD1 [4]; first replicate column
  Raw data, WT: 0.007561
  Raw data, YF mutant: 0.003085
CgBdf1 BD1 [4]
  Normalized (0 to 100%), WT: 2.32%
  Normalized (0 to 100%), YF mutant: 0.308%
CgBdf1 BD1 [4]; second replicate column
  Raw data, WT: 0.03875
  Raw data, YF mutant: 0.003085
CgBdf1 BD2 [5]; first replicate column
  Raw data, WT: 0.007798
  Raw data, YF mutant: 0.005521
CgBdf1 BD2 [5]
  Normalized (0 to 100%), WT: 0.717%
  Normalized (0 to 100%), YF mutant: 0.276%
CgBdf1 BD2 [5]; second replicate column
  Raw data, WT: 0.00655
  Raw data, YF mutant: 0

## Cc1cccc(-c2nnc(C)c(NCc3ccc(C)o3)n2)c1 [Compound 24d]
CgBdf1 BD1 [1]; [6]
  IC50: 14.2 µM and 12.2 µM and 11.5 µM
CgBdf1 BD2 [2]; [6]
  IC50: 16.4 µM and 18.7 µM and 21.5 µM
[3]; strain BD1 Y-F, single experiments Exp1-3
  pEC50 growth inhibition: 3.797 and 3.888
[3]; [7]
  pEC50 growth inhibition: 4.459 and 4.324
[3]; Fig 2D, WT C. glabrata, single experiments Exp1-3
  pEC50 (WT BDF1): 3.713 and 3.843
[3]; [8]
  EC50: 101 µM
[3]; [9]
  EC50: 134 µM
[3]; [10]
  EC50: 44.7 µM

## COC(=O)c1cccc(CNc2nc(-c3ccc(C)cc3)nnc2C)c1 [Compound 24l, Methyl 3‐(((6‐methyl‐3‐(p‐tolyl)‐1,2,4‐triazin‐5‐yl)amino)methyl)benzoate]
CgBdf1 BD1 [1]; [6]
  IC50: 79.4 µM and 39.6 µM and 89.9 µM
CgBdf1 BD2 [2]; [6]
  IC50: > 100 µM
[3]; [8]
  EC50: > 251 µM
[3]; [9]
  EC50: > 251 µM
[3]; [10]
  EC50: > 251 µM

## COc1ccc(CNc2nc(-c3ccc(C)cc3)nnc2C)cc1OC [Compound 24i]
CgBdf1 BD1 [1]; [6]
  IC50: 2.61 µM and 2.54 µM and 2.62 µM
CgBdf1 BD2 [2]; [6]
  IC50: 44.1 µM and 45 µM and 41.5 µM
[3]; [8]
  EC50: > 251 µM
[3]; [9]
  EC50: > 251 µM
[3]; [10]
  EC50: > 251 µM

## CCNC(=O)C[C@@H]1N=C(c2ccc(Cl)cc2)c2cc(OC)ccc2-n2c(C)nnc21 [I-BET]
[3]; WT BDF1 strain
  OD at 600 nm: 0.369 and 0.413 and 0.420
[3]; bdf1-bd1Δ strain
  OD at 600 nm: 0.298 and 0.365 and 0.364
[3]; bdf1-bd2Δ strain
  OD at 600 nm: 0.164 and 0.171 and 0.191

## COc1ccccc1S(=O)(=O)Nc1ccc2c(c1)CN(C)C(=O)N2 [PFI]
[3]; WT BDF1 strain
  OD at 600 nm: 0.381 and 0.415 and 0.390
[3]; bdf1-bd1Δ strain
  OD at 600 nm: 0.323 and 0.367 and 0.349
[3]; bdf1-bd2Δ strain
  OD at 600 nm: 0.181 and 0.163 and 0.165

## Cc1ccc(-c2nnc(C)c(Cl)n2)cc1 [Compound 68]
CgBdf1 BD1 [4]; first replicate column
  Raw data, WT: 0.003466
  Raw data, YF mutant: 0.003085
CgBdf1 BD1 [4]
  Normalized (0 to 100%), WT: 2.19%
  Normalized (0 to 100%), YF mutant: 0.355%
CgBdf1 BD1 [4]; second replicate column
  Raw data, WT: 0.04033
  Raw data, YF mutant: 0.00401
CgBdf1 BD2 [5]; first replicate column
  Raw data, WT: 0.004679
  Raw data, YF mutant: 0.004601
CgBdf1 BD2 [5]
  Normalized (0 to 100%), WT: 0.624%
  Normalized (0 to 100%), YF mutant: 0.23%
CgBdf1 BD2 [5]; second replicate column
  Raw data, WT: 0.007798
  Raw data, YF mutant: 0

## I-BET151 [reference compound]
CgBdf1 BD1 [1]; [11]
  pIC50 CgBD1: 5.54 and 5.64 and 5.77
CgBdf1 BD1 [1]; [12]
  pIC50 CgBD1: 5.772 and 5.641
CgBdf1 BD2 [2]; [11]
  pIC50 CgBD2: 6.30 and 6.21 and 6.31
CgBdf1 BD2 [2]; [12]
  pIC50 CgBD2: 6.297 and 6.205

## CCOC(=O)Nc1cc(-c2ccc(C)c(NS(C)(=O)=O)c2)nn2c(C)nnc12 [Bromosporine, reference compound]
CgBdf1 BD1 [1]; 4 h, CgBD1, Conc 78.13 nM, replicate experiments, read-out: HTRF signal relative to no-compound control (Figure S4A raw data)
  remaining activity at 0.07813 µM: 98%
CgBdf1 BD1 [1]; 4 h, CgBD1, Conc 312.5 nM, replicate experiments, read-out: HTRF signal relative to no-compound control (Figure S4A raw data)
  remaining activity at 0.3125 µM: 97.9%
CgBdf1 BD1 [1]; 4 h, CgBD1, Conc 2500 nM, replicate experiments, read-out: HTRF signal relative to no-compound control (Figure S4A raw data)
  remaining activity at […]: 94.3%
CgBdf1 BD1 [1]; 4 h, CgBD1, Conc 5000 nM, replicate experiments, read-out: HTRF signal relative to no-compound control (Figure S4A raw data)
  remaining activity at 5 µM: 80.9%
CgBdf1 BD1 [1]; 4 h, CgBD1, Conc 10000 nM, replicate experiments, read-out: HTRF signal relative to no-compound control (Figure S4A raw data)
  remaining activity at 10 µM: 75.9%
CgBdf1 BD1 [1]; 4 h, CgBD1, Conc 20000 nM, replicate experiments, read-out: HTRF signal relative to no-compound control (Figure S4A raw data)
  remaining activity at 20 µM: 49.4%
CgBdf1 BD1 [1]; Fig 1D/2A original data
  IC50: 23.4 µM and 12.3 µM and 20 µM
CgBdf1 BD2 [2]; 24 h, CgBD2, Conc 78.13 nM, replicate experiments, read-out: HTRF signal relative to no-compound control (Figure S4A raw data)
  remaining activity at 0.07813 µM: 106%
CgBdf1 BD2 [2]; 24 h, CgBD2, Conc 156.25 nM, replicate experiments, read-out: HTRF signal relative to no-compound control (Figure S4A raw data)
  remaining activity at 0.15625 µM: 113%
CgBdf1 BD2 [2]; 24 h, CgBD2, Conc 2500 nM, replicate experiments, read-out: HTRF signal relative to no-compound control (Figure S4A raw data)
  remaining activity at […]: 79.8%
CgBdf1 BD2 [2]; 24 h, CgBD2, Conc 5000 nM, replicate experiments, read-out: HTRF signal relative to no-compound control (Figure S4A raw data)
  remaining activity at 5 µM: 60.1%
CgBdf1 BD2 [2]; 24 h, CgBD2, Conc 10000 nM, replicate experiments, read-out: HTRF signal relative to no-compound control (Figure S4A raw data)
  remaining activity at 10 µM: 30.8%
CgBdf1 BD2 [2]; 24 h, CgBD2, Conc 20000 nM, replicate experiments, read-out: HTRF signal relative to no-compound control (Figure S4A raw data)
  remaining activity at 20 µM: 23.4%
CgBdf1 BD2 [2]; Fig 1D/2A original data
  IC50: 4.9 µM and 4.17 µM
[3]; WT BDF1 strain
  OD at 600 nm: 0.446 and 0.443 and 0.490
[3]; bdf1-bd1Δ strain
  OD at 600 nm: 0.422 and 0.447 and 0.470
[3]; bdf1-bd2Δ strain
  OD at 600 nm: 0.242 and 0.229 and 0.260
